Test results published in paper PMC12648656, “Palladium(II) Complexes with Noncovalent Interactions with DNA: Solution Speciation Controlled by Solvent Identity, pH, and Concentration” (Inorganic Chemistry, 2025).
Converted amounts (≈) assume the structure as drawn. Like-named read-outs stand apart in the source and are kept apart here.

Tests used:
calf thymus-DNA (CT-DNA) [1] = assay: Viscometry with CT-DNA; assay type: binding; settings: compound/DNA ratios 0.0 to 1.0; 5 mM Tris, 100 mM NaCl, pH 7.40, 25.0 °C
Protocol: […] Then, the samples were incubated at 37 °C and with constant shaking at 300 rpm for 10 min and 1 h. After each incubation, the viscosity was measured at a constant temperature of 25.0 ± 0.2 °C in a vibrational viscometer. The relative viscosity was calculated by taking the mean values of three replicate measurements, and the values were represented by plotting the values of relative viscosity of CT-DNA (η/η0)^1/3 against 1/R.

pBR322 plasmid DNA = assay: Agarose gel electrophoresis mobility shift; assay type: binding; settings: r i 0.01 to 0.20, 24 h, 37 °C
Protocol: Complexes (2) and (3) were incubated at 37 °C with a concentration of 0.0625 μg/μL pBR322 plasmid DNA at different concentrations expressed as r i = complex:DNA (base pair) ratio. The r i used was from 0.01 to 0.20, in a total volume of 20 μL. After an incubation period of 24 h, the mobility of the complex-treated pBR322 samples was analyzed by gel electrophoresis at 70 V in Tris/acetate/EDTA buffer. A control of pBR322 was also incubated, and a 1 kb ladder aliquot was loaded into lane 1 of the gel. The gel was stained with an ethidium bromide aqueous solution, and DNA bands were visualized with a UV-transilluminator UVITEC Cambridge UVIDOC HD2 instrument. The studies were performed with 3% (v/v) DMSO as the final solution.

[2] = test system: Escherichia coli (ATCC 25922); assay: Antibacterial MIC, broth dilution; assay type: cell-based
Protocol: (§1) Antibacterial activity was determined for the title compounds in various Gram-negative and Gram-positive bacterial strains, namely Klebsiella pneumoniae, Escherichia coli (ATCC 25922), Staphylococcus aureus (272123), methicillin-resistant Staphylococcus aureus (ATCC 43300), and Enterococcus faecalis (ATCC 29212). The stock solutions of the tested compounds were prepared in DMSO at a 5 mM concentration. […] All stock solutions were diluted in 100 μL of Mueller Hinton Broth, and then two-fold serial dilutions were performed. Then, a 10^–4 dilution of an overnight bacterial culture in 100 μL of medium was added to each well, except for the medium control wells. The highest concentration of the compounds in the tested samples was 100 μM. The plates were incubated at 37 °C for 18 h. After that, the MIC values were determined by visual inspection.

[3] = test system: Enterococcus faecalis (ATCC 29212); assay: Antibacterial MIC, broth dilution; assay type: cell-based
Protocol: as §1

Klebsiella pneumoniae = assay: Antibacterial MIC, broth dilution; assay type: cell-based; settings: 18 h
Protocol: as §1

[4] = test system: Staphylococcus aureus (272123); assay: Antibacterial MIC, broth dilution; assay type: cell-based; settings: 18 h
Protocol: as §1

calf thymus-DNA (CT-DNA) [5] = assay: UV-vis titration with CT-DNA; assay type: binding; settings: complex/DNA ratio 0 to 0.79; 5 mM Tris, 50 mM NaCl, pH 7.40, 25 °C
Protocol: To investigate the potential binding ability of the palladium complexes (2) and (3) with DNA, UV–vis titrations (240 to 700 nm) were performed at room temperature. During the titrations, the CT-DNA concentration (5.08 × 10^–5 M) was kept constant, while the concentration of each complex (0 to 2.00 × 10^–5 M) was varied. The changes in the typical absorbance of CT-DNA at 260 nm were monitored after equilibration (10 min) and after 1 h of incubation at 37 °C. […] Control experiments with DMSO were performed, and no changes in the CT-DNA spectrum were observed.

[6] = molecular target: T1, hen egg white lysozyme (HEWL) (Gallus gallus, UniProt P00698); assay: Reaction with lysozyme followed by UV-vis at 280 nm, pseudo-first-order kinetics; assay type: binding; settings: metal:protein 3:1, 5 mM Tris/3% DMSO, 37 °C, absorbance at 280 nm
T1 construct: a model protein, namely HEWL (hen egg white lysozyme), was also studied; from tissue; host or cells: hen egg white (from the protein's name)
T1 sequence (P00698 19-147): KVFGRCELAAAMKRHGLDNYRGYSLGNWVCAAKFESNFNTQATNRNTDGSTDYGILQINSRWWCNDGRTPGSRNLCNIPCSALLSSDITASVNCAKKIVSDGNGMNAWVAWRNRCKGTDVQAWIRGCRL
Protocol: The interaction of complexes (2) and (3) with hen egg white lysozyme (HEWL) was investigated using a 10^–5 M solution of the protein. Lysozyme is a widely used model protein for studying the binding of potential metallodrugs. The sample preparation for this assay was carried out using the same protocol of the samples for the DNA interactions studies by UV–vis spectrophotometry. The integrity of the enzyme was checked in each experiment, with a comparison of fresh and incubated samples. UV–vis spectra were recorded before and after incubation with the complex (dissolved in 97% 5 mM Tris/3% DMSO) for 24 h at 37 °C. A metal to protein ratio of 3:1 was used for these studies, a ratio that affords similar results to 10:1 and eases the sample preparation. The experimental time-dependent profiles of the spectra were analyzed as pseudo-first-order reactions by plotting the variation of the absorbance as a function of time.

[7] = test system: Colo 205 human colon cancer cell line; assay: In vitro cytotoxicity, MTT; assay type: cell-based; settings: Colo 205, 72 h exposure
Protocol: (§2) Cell culture reagents were obtained from Merck, and plasticware was obtained from Sarstedt. Human colon adenocarcinoma cell line Colo 205 (ATCC CCL-222) and MCF7 (ATCC HTB-22) breast cancer cells were purchased from LGC Promochem. Cancer cells were cultured in RPMI 1640 medium supplemented with 10% heat-inactivated fetal bovine serum, 2 mM L-glutamine, and 1 mM sodium pyruvate and buffered with 100 mM HEPES. The cells were incubated at 37 °C in a 5% CO2, 95% air atmosphere and were detached with Trypsin-Versene (EDTA) solution for 5 min at 37 °C.
(§3) The tested ligands were dissolved in DMSO, and the stock solutions (5 mM) were diluted in complete culture medium. Two-fold serial dilutions of compounds were made in 100 μL of the medium, horizontally. The semiadherent colon adenocarcinoma cells were treated with Trypsin-Versene (EDTA) solution. They were adjusted to a density of 1 × 10^4 cells in 100 μL of RPMI 1640 medium and were added to each well, with the exception of the medium control wells. The final volume of the wells containing compounds and cells was 200 μL. The plates containing the cells were incubated at 37 °C for 72 h; at the end of the incubation period, 20 μL of MTT solution (5 mg/mL) was added to each well. After incubation at 37 °C for 4 h, 100 μL of sodium dodecyl sulfate solution (10% in 0.01 M HCl) was added to each well, and the plates were further incubated at 37 °C overnight. Cell growth was determined by measuring the optical density (OD) at 540 and 630 nm with a Multiskan EX plate reader (Thermo Labsystems).
(§4) Curves for the data obtained on cancer cells were fitted by GraphPad Prism software using the sigmoidal dose–response model (comparing variable and fixed slopes). The IC50 values were always obtained from at least three independent experiments.

[8] = test system: methicillin-resistant Staphylococcus aureus (ATCC 43300); assay: microbe, parasite or virus in culture; assay type: cell-based; settings: 18 h
Protocol: as §1

glutathione (GSH) = assay: Reaction with glutathione followed by UV-vis; settings: 30-fold GSH, ~20 μM complex, 60% (v/v) DMSO/phosphate buffer pH 7.4, 25.0 °C
Protocol: Reactions between the title compounds and GSH were also followed by UV–vis spectrophotometry under an inert atmosphere to overcome oxidation of GSH by air oxygen. Samples contained the metal complexes at low concentrations (∼20 μM) and were prepared using 60% (v/v) DMSO/phosphate buffer solution (pH 7.4) to avoid precipitation. The reactants were separated in the pockets of a tandem cuvette, followed by deoxygenation by argon bubbling. The separate solutions were mixed at 1:30 metal complex:GSH molar ratios, and UV–vis spectra were recorded. Argon was continuously passed over the sample during the whole measurement.

Solubility observations = assay type: physicochemical; settings: as observed; aqueous solution for HL
[9] = Spectrophotometric (UV-vis) pH titrations for proton dissociation constants; assay type: physicochemical; settings: I = 0.10 M (KCl), 25.0 °C
Protocol: Spectrophotometric titrations were applied to study the equilibrium processes (proton dissociation and complex dissociation/formation) in DMSO/H2O mixtures due to the limited aqueous solubility of the compounds. The calibration of the electrode system was performed by strong acid–strong base pH-potentiometric titrations in 30% (v/v) and 60% (v/v) DMSO/H2O solvent mixtures at 25.0 ± 0.1 °C as described in our previous works. , KCl (0.1 M) was the supporting electrolyte to maintain constant ionic strength, which refers to the chloride ion concentration in blood plasma. […] The initial sample volume was 5 mL. Spectrophotometric titrations were performed in the pH range 1.8–12.5 for 30% (v/v) DMSO/H2O medium and 1.8–14.0 for 60% (v/v) DMSO/H2O medium. Prior to the titrations, purified argon was passed through the samples for approximately 10 min to remove CO2 traces, and argon was also passed over the samples during these measurements. The proton dissociation constants were calculated by using the computer program PSEQUAD.

[10] = n-Octanol/water and n-octanol/Tris buffer shake-flask partitioning; assay type: physicochemical
Protocol: The distribution coefficient values (D 7.4) of the compounds were determined by the traditional shake-flask method in n-octanol/buffered aqueous solution at pH 7.40 for 5 mM Tris HCl with 0.1 M KCl and at pH 7.4 at 25.0 ± 0.2 °C. The ligand and complexes were dissolved in n-octanol (presaturated by the aqueous buffer) because of the very low aqueous solubility. The aqueous buffer solution and n-octanol ratio was 1:1 due to the expected high lipophilicity of the compounds. First, samples were mixed with vertical rotation (∼20 rpm) for 3 h, and then the two phases were separated by centrifugation at 3000 rpm (∼1000g) for 3 min. After separation, UV–vis spectra of the compounds were recorded in both phases. Spectra of the n-octanol phases were compared to those of the original n-octanol stock solutions.
The distribution coefficient values were also determined using unbuffered water and octanol (also presaturated) with a ratio of 1:1.

[11] = test system: MCF7 human breast cancer cell line; assay: In vitro cytotoxicity, MTT; assay type: cell-based; settings: Homo sapiens; MCF7, 72 h exposure
Protocol: as §2, §3, §4

[12] = Escherichia coli, ATCC25922, 18 h
[13] = Enterococcus faecalis, ATCC29212, 18 h
[14] = Staphylococcus aureus, ATCC 43300 / MRSA

CC[n+]1c(-c2ccccc2)c2cc(N)ccc2c2ccc(N)cc21 [ethidium bromide]
effect on relative viscosity of CT-DNA (calf thymus-DNA (CT-DNA) [1]): increases the dynamic viscosity

Chlorido(dimethyl sulfoxide)(1H-imidazole-4-carboxaldehyde-4N-p-chlorophenylthiosemicarbazonato)palladium(II) [(3)]
effect on electrophoretic mobility of supercoiled pBR322 (pure form) (pBR322 plasmid DNA): small unwinding
MIC ([2]; E. coli, 18 h, 37 °C): > 100 µM
MIC ([3]; E. faecalis, 18 h, 37 °C): > 100 µM
MIC (Klebsiella pneumoniae; K. pneumoniae, 37 °C): > 100 µM
MIC ([4]; S. aureus, 37 °C): > 100 µM
change of CT-DNA absorption at 260 nm (calf thymus-DNA (CT-DNA) [5]): absorption values of DNA–complex samples increase
observed rate constant k obs [6]: (8.75 ± 0.09) × 10^–5 s^–1
IC50 [7]: 16.2 ± 1.18 µM
MIC ([8]; S. aureus (MRSA), 37 °C): > 100 µM
time to equilibrium of the reaction with GSH (glutathione (GSH)): ≤ 30 min

S=C(N/N=C/c1c[nH]cn1)Nc1ccc(Cl)cc1 [HL, 1H-Imidazole-4-carboxaldehyde(4N-p-chlorophenyl)thiosemicarbazone]
solubility (Solubility observations): poor solubility
pKa ([9]; 30% (v/v) DMSO/H2O solvent mixture, 30% (v/v) DMSO/H2O, read-out: pKa1): 4.38 ± 0.03
pKa ([9]; 30% (v/v) DMSO/H2O solvent mixture, 30% (v/v) DMSO/H2O, read-out: pKa2): 10.96 ± 0.04
pKa ([9]; 60% (v/v) DMSO/H2O solvent mixture, 60% (v/v) DMSO/H2O, read-out: pKa1): 3.81 ± 0.02
pKa ([9]; 60% (v/v) DMSO/H2O solvent mixture, 60% (v/v) DMSO/H2O, read-out: pKa2): 11.12 ± 0.01
pKa ([9]; pure water (0% DMSO), predicted value, 0% DMSO (pure water), predicted value, read-out: pKa1): 4.58
pKa ([9]; pure water (0% DMSO), predicted value, 0% DMSO (pure water), predicted value, read-out: pKa2): 10.9
MIC [2, 12]: 25 µM (≈ 6.99 µg/mL)
MIC [3, 13]: 100 µM (≈ 28 µg/mL)
MIC (Klebsiella pneumoniae; Klebsiella pneumoniae): > 100 µM
MIC ([4]; Staphylococcus aureus): 100 µM (≈ 28 µg/mL)
logD ([10]; n-octanol/Tris HCl buffer, pH 7.4, n-octanol/5 mM Tris HCl with 0.1 M KCl, pH 7.40, 25.0 °C, read-out: log D o/t): 1.58
logD ([10]; n-octanol/pure (unbuffered) water, 1:1, read-out: log D o/w): 0.9
IC50 [11]: 2.97 ± 0.32 µM
IC50 ([7]; Homo sapiens): 19.1 ± 0.6 µM
MIC [8, 14]: 50 µM (≈ 14 µg/mL)

O=C(O)c1cn(C2CC2)c2cc(N3CCNCC3)c(F)cc2c1=O [ciprofloxacin, reference compound]
MIC [2, 12]: 0.235 µM (≈ 0.078 µg/mL)
MIC [3, 13]: 1.89 µM (≈ 0.625 µg/mL)
MIC (Klebsiella pneumoniae; Klebsiella pneumoniae): 0.235 µM (≈ 0.078 µg/mL)
MIC ([4]; Staphylococcus aureus): 1.89 µM (≈ 0.625 µg/mL)
MIC [8, 14]: > 15.1 µM

COc1cccc2c1C(=O)c1c(O)c3c(c(O)c1C2=O)C[C@@](O)(C(=O)CO)C[C@@H]3O[C@H]1C[C@H](N)[C@H](O)[C@H](C)O1 [Doxorubicin, reference compound]
IC50 [11]: 0.128 ± 0.0009 µM
IC50 ([7]; Homo sapiens): 0.158 ± 0.004 µM

CNC(C)C1CCC(N)C(OC2C(N)CC(N)C(OC3OCC(C)(O)C(NC)C3O)C2O)O1 (stereo not drawn) [gentamicin, reference compound]
MIC [2, 12]: 5.24 µM (≈ 2.5 µg/mL)
MIC [3, 13]: 10.5 µM (≈ 5 µg/mL)
MIC (Klebsiella pneumoniae; Klebsiella pneumoniae): 2.62 µM (≈ 1.25 µg/mL)
MIC ([4]; Staphylococcus aureus): 10.5 µM (≈ 5 µg/mL)
MIC [8, 14]: > 10.5 µM
